Results as given in PubChem BioAssay AID1963858 (Molecular Pharmacology Branch, DTP, NCI, 2024).

System: HOP-62 multicell spheroids with HUVEC/MSC, viability
Assay: Anticancer human tumor HOP-62 cell line growth inhibition [KRAS2];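 further: viability read after a week of compound exposure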;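 on viability, T/C: 100% = DMSO vehicle-treated spheroids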
Conditions: for viability, T/C: stronger effect = lower value
Text: Multicellular complex tumor spheroid response to RAS pathway inhibitors in combination with a targeted agents in patient-derived cell lines with oncogenic KRAS variants from multiple cancer types
A high-throughput screen of multi-cell type tumor spheroids was designed to identify active combinations of targeted small molecules and KRAS pathway inhibitors. Complex spheroids include a stromal component modeled by human endothelial cells (HUVEC) and fibroblasts modeled by human mesenchymal stem cells (MSCs). The concentration ranges selected for each drug and investigational agent were based upon clinically achievable concentrations if the clinical Cmax of the agent was known.
Compounds. The drugs and investigational agents: BI-3406 (NSC825286), BAY-293 (NSC824723), batoprotafib (TNO155; NSC825523), sotorasib (AMG 510; NSC818433), MRTX1257 (NSC819558), elimusertib (BAY 1895344; NSC800525), molibresib (GSK525762; NSC774829), temuterkib (LY3214996; NSC803410), venetoclax (NSC766270), alisertib (NSC759677), olaparib (NSC753686), talazoparib (NSC767125), erdafitinib (NSC781556), ipatasertib (NSC767898), cabozantinib (NSC761068), nintedanib (NSC756659), abemaciclib (NSC768073), docetaxel (NSC628503), trametinib (NSC758246), and sapanisertib (NSC764658) were obtained from the National Cancer Institute (NCI) Developmental Therapeutics Program Chemical Repository. The FDA-approved anticancer drug set is available from the Developmental Therapeutics Program. […] The stock solutions were prepared in dimethyl sulfoxide (DMSO, Sigma-Aldrich, St. Louis, MO, cat. D2650) at 800-fold the tested concentration and stored at -70 degrees C prior to their use. All drugs and investigational agents were tested over a range starting from a high concentration at or near the clinical Cmax and decreasing in half-log increments. If the clinical Cmax for an agent had not been determined, the highest concentration tested was 10 microM.
Cell Culture. All cells were maintained in an incubator at 37 degrees C and 5% CO2 with 95% humidity. The PDC lines were cultured according to standard operating procedures established by the NCI PDMR (https://pdmr.cancer.gov/sops/default.htm). Briefly, all PDCs were thawed and cultured in Matrigel-coated flasks prepared with a working solution of 1X Ham's F-12 nutrient mix, without supplementation (Invitrogen, Waltham, MA, cat. 11765054), 100 U/mL penicillin-streptomycin (Invitrogen, cat. 15140122), and 2.5% Matrigel (Corning Inc., Corning, NY, cat. 354248) for the first three passages. All PDCs were cultured in complete DMEM/F-12 media containing advanced DMEM/F-12 (Invitrogen, cat. 12634028), 4.9% defined fetal bovine serum, heat inactivated (HyClone Laboratories Inc., Logan, UT, cat. SH30070.03HI), 389 ng/mL hydrocortisone (Sigma-Aldrich, cat. H4001), 9.7 ng/mL human EGF recombinant protein (Invitrogen, cat. PHG0313), 23.4 microg/mL adenine (Sigma-Aldrich, cat. A2786), 97.3 U/mL penicillin-streptomycin (Invitrogen, cat. 15140122), 1.9 mM L-glutamine (Invitrogen, cat. 25030081), and 9.7 microM Y-27632 dihydrochloride (Tocris Bioscience, Bristol, United Kingdom, cat. 1254). The PDCs were cultured in complete DMEM/F12 media without 9.7 microM Y-27632 dihydrochloride for at least two passages prior to the screen. The established cell line HOP-62 was cultured in RPMI 1640 medium, HEPES (Invitrogen, cat. 22400105) with 10% defined fetal bovine serum (HyClone Laboratories Inc., cat. SH30070.03) and 2 mM L-glutamine (Invitrogen, cat. 25030081). The pooled donor HUVEC were cultured in endothelial cell growth medium 2 (PromoCell, Heidelberg, Germany, cat. C-22011) and the hMSC were cultured in mesenchymal stem cell growth medium 2 (PromoCell, cat. C-28009). For all experiments, HUVEC and hMSC were used at passages </=5, while the malignant cell lines were used at passages </=15. […]

[1] = curve of first compound, second compound 0.1 µM
[2] = curve of first compound, second compound 0.316 µM
[3] = curve of first compound, second compound 1 µM
[4] = curve of first compound, second compound 3.16 µM
[5] = second compound 0.1 µM, first compound 0.0316 µM
[6] = second compound 0.1 µM, first compound 0.1 µM
[7] = second compound 0.1 µM, first compound 0.316 µM
[8] = second compound 0.1 µM, first compound 1 µM
[9] = second compound 0.316 µM, first compound 0.0316 µM
[10] = second compound 0.316 µM, first compound 0.1 µM
[11] = second compound 0.316 µM, first compound 0.316 µM
[12] = second compound 0.316 µM, first compound 1 µM
[13] = second compound 1 µM, first compound 0.0316 µM
[14] = second compound 1 µM, first compound 0.1 µM
[15] = second compound 1 µM, first compound 0.316 µM
[16] = second compound 1 µM, first compound 1 µM
[17] = second compound 3.16 µM, first compound 0.0316 µM
[18] = second compound 3.16 µM, first compound 0.1 µM
[19] = second compound 3.16 µM, first compound 0.316 µM
[20] = second compound 3.16 µM, first compound 1 µM
[21] = curve of first compound, second compound 10 µM
[22] = second compound 0.1 µM, first compound 0.00316 µM
[23] = second compound 0.1 µM, first compound 0.01 µM
[24] = second compound 0.316 µM, first compound 0.00316 µM
[25] = second compound 0.316 µM, first compound 0.01 µM
[26] = second compound 1 µM, first compound 0.00316 µM
[27] = second compound 1 µM, first compound 0.01 µM
[28] = second compound 3.16 µM, first compound 0.00316 µM
[29] = second compound 3.16 µM, first compound 0.01 µM
[30] = second compound 10 µM, first compound 0.00316 µM
[31] = second compound 10 µM, first compound 0.01 µM
[32] = second compound 10 µM, first compound 0.0316 µM
[33] = second compound 10 µM, first compound 0.1 µM

For COc1cc2nccc(Oc3ccc(NC(=O)C4(C(=O)Nc5ccc(F)cc5)CC4)cc3)c2cc1OC, the viability, T/C (compound 0.0316 µM) was 96.9% [middle of 5 runs], the viability, T/C (compound 1 µM) was 99.2% [middle of 5 runs] and the viability, T/C (compound 3.16 µM) was 78.9% [middle of 5 runs].
For CC1OCC2(CCN(c3cnc(Sc4ccnc(N)c4Cl)c(N)n3)CC2)C1N (stereo not given) + C=CC(=O)N1CCN(c2nc(OCC3CCCN3C)nc3c2CCN(c2cccc4cccc(C)c24)C3)CC1CC#N, the IC50 (curve of first compound, second compound 0.0316 µM) was 69.7 nM, the IC50 [1] was 36.8 nM and the IC50 [2] was < 31.6 nM. The IC50 [3] was < 31.6 nM, the IC50 [4] was < 31.6 nM and the viability, T/C (second compound 0.0316 µM, first compound 0.0316 µM) was 54.3%. It also gave a viability, T/C (second compound 0.0316 µM, first compound 0.1 µM) of 49.1%, a viability, T/C (second compound 0.0316 µM, first compound 0.316 µM) of 27% and a viability, T/C (second compound 0.0316 µM, first compound 1 µM) of 19.5%. For the same compound, the viability, T/C (second compound 0.0316 µM, first compound 3.16 µM) was 11.9%, the viability, T/C (second compound 0.0316 µM, first compound 10 µM) was 12.7% and the viability, T/C [5] was 53.5%. The viability, T/C [6] was 29.1%, the viability, T/C [7] was 19.9% and the viability, T/C [8] was 12.8%. It also gave a viability, T/C (second compound 0.1 µM, first compound 3.16 µM) of 11.5%, a viability, T/C (second compound 0.1 µM, first compound 10 µM) of 12.2% and a viability, T/C [9] of 40%. For the same compound, the viability, T/C [10] was 30.7%, the viability, T/C [11] was 13.9% and the viability, T/C [12] was 10.5%. For the same compound, the viability, T/C (second compound 0.316 µM, first compound 3.16 µM) was 10.2%, the viability, T/C (second compound 0.316 µM, first compound 10 µM) was 10.6% and the viability, T/C [13] was 24%. The viability, T/C [14] was 16%, the viability, T/C [15] was 11.8% and the viability, T/C [16] was 8.98%. It also gave a viability, T/C (second compound 1 µM, first compound 3.16 µM) of 7.63%, a viability, T/C (second compound 1 µM, first compound 10 µM) of 7.61% and a viability, T/C [17] of 4.76%. For the same compound, the viability, T/C [18] was 1.76%, the viability, T/C [19] was 1.12% and the viability, T/C [20] was 0.88%. It also gave a viability, T/C (second compound 3.16 µM, first compound 3.16 µM) of 0.72% and a viability, T/C (second compound 3.16 µM, first compound 10 µM) of 0.51%.
With CC(C)NCC(C(=O)N1CCN(c2ncnc3c2C(C)CC3O)CC1)c1ccc(Cl)cc1 (stereo not given) the viability, T/C (compound 0.0316 µM) was 101% [middle of 5 runs], the viability, T/C (compound 0.1 µM) was 104% [middle of 5 runs] and the viability, T/C (compound 0.316 µM) was 80.4% [middle of 5 runs]. For the same compound, the viability, T/C (compound 1 µM) was 62.8% [middle of 5 runs], the viability, T/C (compound 3.16 µM) was 27.9% [middle of 5 runs] and the viability, T/C (compound 10 µM) was 13.2% [middle of 5 runs]. The IC50 (curve of compound) was 1.49 µM [middle of 5 runs].
With CCN1CCN(Cc2ccc(Nc3ncc(F)c(-c4cc(F)c5nc(C)n(C(C)C)c5c4)n3)nc2)CC1 + CC1OCC2(CCN(c3cnc(Sc4ccnc(N)c4Cl)c(N)n3)CC2)C1N the IC50 [1] was > 1000 nM, the IC50 [2] was 370 nM and the IC50 [3] was 67.5 nM. The IC50 [4] was < 3.16 nM, the IC50 [21] was < 3.16 nM and the viability, T/C [22] was 104%. The viability, T/C [23] was 93.8%, the viability, T/C [5] was 87.1% and the viability, T/C [6] was 83.7%. For the same compound, the viability, T/C [7] was 75.4%, the viability, T/C [8] was 50.8% and the viability, T/C [24] was 96.8%. For the same compound, the viability, T/C [25] was 76.6%, the viability, T/C [9] was 73.1% and the viability, T/C [10] was 73%. The viability, T/C [11] was 49%, the viability, T/C [12] was 37.2% and the viability, T/C [26] was 65.3%. It also gave a viability, T/C [27] of 73.2%, a viability, T/C [13] of 53% and a viability, T/C [14] of 42.1%. For the same compound, the viability, T/C [15] was 42.7%, the viability, T/C [16] was 25.9% and the viability, T/C [28] was 33.7%. For the same compound, the viability, T/C [29] was 41.3%, the viability, T/C [17] was 33.5% and the viability, T/C [18] was 27%. For the same compound, the viability, T/C [19] was 25.7%, the viability, T/C [20] was 20.1% and the viability, T/C [30] was 32.6%. The viability, T/C [31] was 27.4%, the viability, T/C [32] was 23.4% and the viability, T/C [33] was 21.5%. For the same compound, the viability, T/C (second compound 10 µM, first compound 0.316 µM) was 23.9% and the viability, T/C (second compound 10 µM, first compound 1 µM) was 13.9%.
CC(C)n1nc(-c2ccc3oc(N)nc3c2)c2c(N)ncnc21 + COc1cc2nc(C)nc(NC(C)c3cc(N)cc(C(F)(F)F)c3)c2cc1OC1CCOC1 was tested, and the IC50 [1] was 3.27 nM, the IC50 [2] was 2.34 nM and the IC50 [3] was 1.8 nM. The IC50 [4] was < 0.316 nM, the IC50 [21] was < 0.316 nM and the viability, T/C (second compound 0.1 µM, first compound 0.000316 µM) was 103%. It also gave a viability, T/C (second compound 0.1 µM, first compound 0.001 µM) of 77%, a viability, T/C [22] of 50.4% and a viability, T/C [23] of 32.2%. For the same compound, the viability, T/C [5] was 18.1%, the viability, T/C [6] was 15.5% and the viability, T/C (second compound 0.316 µM, first compound 0.000316 µM) was 82.5%. It also gave a viability, T/C (second compound 0.316 µM, first compound 0.001 µM) of 64.2%, a viability, T/C [24] of 46% and a viability, T/C [25] of 26.9%. The viability, T/C [9] was 21.4%, the viability, T/C [10] was 13.8% and the viability, T/C (second compound 1 µM, first compound 0.000316 µM) was 86.7%. For the same compound, the viability, T/C (second compound 1 µM, first compound 0.001 µM) was 67.1%, the viability, T/C [26] was 32% and the viability, T/C [27] was 23.9%. The viability, T/C [13] was 16.5%, the viability, T/C [14] was 11.3% and the viability, T/C (second compound 3.16 µM, first compound 0.000316 µM) was 47.8%. It also gave a viability, T/C (second compound 3.16 µM, first compound 0.001 µM) of 42.4%, a viability, T/C [28] of 25.2% and a viability, T/C [29] of 17.3%. It also gave a viability, T/C [17] of 11.8%, a viability, T/C [18] of 8.61% and a viability, T/C (second compound 10 µM, first compound 0.000316 µM) of 37.7%. The viability, T/C (second compound 10 µM, first compound 0.001 µM) was 30.7%, the viability, T/C [30] was 20.9% and the viability, T/C [31] was 14.8%. It also gave a viability, T/C [32] of 10.9% and a viability, T/C [33] of 8.71%.
